PMC11637875, “Discovery of novel PARP1/NRP1 dual-targeting inhibitors with strong antitumor potency” (Frontiers in Pharmacology, 2024)
Like-named read-outs stand apart in the source and are kept apart here.

How the values were obtained:
PARP1 [1] = biological target: T1, PARP1 (Homo sapiens, UniProt P09874); assay: In vitro PARP1 inhibition assay (chemiluminescence); type: biochemical; conditions: PARP1 enzyme 0.6 units/well
T1 construct: purchased Abcam
Method: In each well, 50 μL of 1 × PARP1 buffer was added and incubated for 30 min at room temperature. The 1 × PARP1 buffer was removed from the wells, and then 25 μL of 1 × PARP1 cocktail was added to each well along with varying doses of compounds and PARP1 enzyme (0.6 units/well). Incubated and washed twice with PBS and 0.1% Triton X-100. Then added 50 μL Strep-HRP and washed twice. Equal volumes (100 μL) of PeroxyGlow A and B were added to each well and immediately take chemiluminescent readings. Data were analyzed by GraphPad Prism 9 software based on chemiluminescence readings of chemiluminescent substrates of Strep-HRP in each well. The IC50 value was were calculated by nonlinear curve fitting in GraphPad Prism 9.

MDA-MB-231 cells = assay: In vitro antiproliferation assay (MTT); type: cell-based; conditions: Homo sapiens
Method: Cell viability was measured by MTT assays. […] Afterward, the medium was removed. MTT (5 mg/mL) was dissolved in phosphate-buffered saline (PBS) and filter-sterilized, and then, 20 μL of the prepared MTT solution was added to each well, and the cells were incubated for another 4 h until a purple precipitate was visible. The supernatant was removed by centrifugation, and DMSO (150 μL/well) was added to dissolve the insoluble crystals. The absorbance was determined using an enzyme-linked immunosorbent assay reader at a test wavelength of 570 nm. The assays were performed three times in a parallel manner. The non-linear regression was used to plot a Dose-Response-Inhibition to determine the value of the IC50. […] The data were analyzed using GraphPad Prism 9 software.

NRP1 [2] = biological target: T2, NRP1 (Homo sapiens, UniProt O14786); assay: In vitro NRP1 inhibition assay (125I-VEGF-A binding displacement, NRP1-transfected HUVEC cells); conditions: 125I-VEGF-A165 binding competition, 2 h, 4°C
T2 construct: expressed in transfected cells; host or cells: HUVEC, adenovirus NRP1
Method: The method was performed as described previously ([Jarvis et al., 2010]). Radiolabeled binding displacement experiments were performed as described previously ([Jia et al., 2006]). Confluent adenovirus NRP1-transfected HUVEC cells in 96-well plates were washed twice with PBS. At 4°C various concentrations of compounds diluted in binding medium (Dulbecco’s modified Eagle’s medium, 25 mM HEPES, pH 7.3, containing 0.1% BSA) were added, followed by addition of the indicated concentration of ^125I-VEGF-A (1,200–1800 Ci/mmol, GE Healthcare, United Kingdom). After 2 h of incubation at 4°C, the medium was aspirated, and washed four times with cold phosphate-buffered saline. The cells were lysed with 0.25 M NaOH, 0.5% SDS solution, and the bound radioactivity of the lysates was measured. IC50 values were calculated from the competition curves of the compounds in the ^125I-VEGF-A165 binding assay using GraphPad Prism 9 software. Using log(inhibitors) vs response-Variable slope equation in the GraphPad Prism 9 to fit the curves. The equation was as follows: (Top and Bottom are the responses, respectively, at the top and bottom of the curve, Y is the inhibitory response at a given compound concentration X, and the Hillslope describes the steepness of the curve.) Y=Bottom+Top−Bottom/1+10^logIC50−xHillslope
T2 sequence (O14786 22-923): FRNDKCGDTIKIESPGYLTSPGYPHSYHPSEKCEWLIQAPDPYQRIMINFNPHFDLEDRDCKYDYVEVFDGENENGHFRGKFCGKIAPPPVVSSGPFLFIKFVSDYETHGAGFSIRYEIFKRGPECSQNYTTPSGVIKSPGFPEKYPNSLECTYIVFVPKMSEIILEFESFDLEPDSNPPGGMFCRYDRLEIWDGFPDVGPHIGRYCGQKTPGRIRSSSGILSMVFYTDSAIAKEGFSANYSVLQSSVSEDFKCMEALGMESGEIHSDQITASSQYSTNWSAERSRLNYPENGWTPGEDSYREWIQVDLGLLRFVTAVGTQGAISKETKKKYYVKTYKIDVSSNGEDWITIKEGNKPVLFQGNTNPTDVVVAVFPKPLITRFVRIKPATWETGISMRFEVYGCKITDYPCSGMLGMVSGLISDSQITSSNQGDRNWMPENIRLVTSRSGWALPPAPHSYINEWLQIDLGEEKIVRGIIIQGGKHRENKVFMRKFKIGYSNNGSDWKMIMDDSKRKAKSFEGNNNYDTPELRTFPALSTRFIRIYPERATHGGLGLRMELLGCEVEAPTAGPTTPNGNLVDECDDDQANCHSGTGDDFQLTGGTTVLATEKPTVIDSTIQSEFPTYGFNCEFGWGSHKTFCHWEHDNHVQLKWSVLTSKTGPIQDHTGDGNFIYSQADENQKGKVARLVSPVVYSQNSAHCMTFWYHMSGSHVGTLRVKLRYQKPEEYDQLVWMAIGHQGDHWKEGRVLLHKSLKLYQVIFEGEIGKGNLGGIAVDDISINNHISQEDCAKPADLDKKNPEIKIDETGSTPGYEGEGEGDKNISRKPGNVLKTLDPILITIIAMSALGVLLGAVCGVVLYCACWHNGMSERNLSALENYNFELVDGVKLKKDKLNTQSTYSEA

NRP1 [3] = biological target: T3, NRP1 (Homo sapiens, UniProt O14786); assay: Microscale thermophoresis (MST) assay; type: binding; conditions: labeled protein 50 nM; for Kd: read-out: NRP1 (K d)
T3 construct: purchased Abcam
T3 sequence (O14786 22-644 isoform O14786-2 limits assumed): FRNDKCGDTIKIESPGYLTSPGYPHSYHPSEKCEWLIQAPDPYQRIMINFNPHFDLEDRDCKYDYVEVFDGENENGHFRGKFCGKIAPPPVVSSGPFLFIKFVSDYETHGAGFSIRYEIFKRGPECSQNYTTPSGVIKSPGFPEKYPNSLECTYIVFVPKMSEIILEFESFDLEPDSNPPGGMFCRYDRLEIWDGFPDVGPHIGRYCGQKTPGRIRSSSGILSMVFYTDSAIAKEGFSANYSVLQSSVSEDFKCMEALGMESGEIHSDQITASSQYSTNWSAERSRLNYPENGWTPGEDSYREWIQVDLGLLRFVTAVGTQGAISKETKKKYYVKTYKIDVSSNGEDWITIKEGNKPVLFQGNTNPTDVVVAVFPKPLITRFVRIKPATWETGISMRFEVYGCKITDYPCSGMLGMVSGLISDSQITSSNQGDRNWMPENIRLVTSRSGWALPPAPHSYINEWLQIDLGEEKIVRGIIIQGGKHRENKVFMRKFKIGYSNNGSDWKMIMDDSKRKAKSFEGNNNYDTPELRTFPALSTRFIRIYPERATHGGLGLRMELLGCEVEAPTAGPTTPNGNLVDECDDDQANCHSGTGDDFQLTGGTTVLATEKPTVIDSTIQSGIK
Method: (§1) All samples were diluted in 1 × PBST. […] Affinity Analysis software.

PARP1 [4] = biological target: T1, PARP1; assay: Microscale thermophoresis (MST) assay; type: binding; conditions: labeled protein 50 nM; for Kd: read-out: PARP1 (K d)
Method: as §1

[5] = system: MDA-MB-231 xenograft tumor; assay: In vivo antitumor assay; set-up: species or system BALB/c nude mice; conditions: 5 mg/kg intraperitoneally every 3 days, n = 6
Method: Twenty-four female BALB/c nude mice (body weight 16–20 g) at 4–6 weeks old were purchased from Changzhou Cavens Experimental Animal Limited Company (Changzhou, China). Mice were adaptively housed for 1 week in a specific pathogen-free (SPF) environment with a temperature of 25°C ± 2°C, a 12-hour light/dark cycle, and free access to food and water. MDA-MB-231 breast cancer cells (200 μL, 1×10^7 cells) were suspended in PBS to formulate cell suspension, and 0.1 mL of cells were injected into the axilla of the left forelimb of mice by subcutaneous injection. […] Equal concentrations of drug-free PBS buffer were used for the vehicle group. Each group was administered every 3 days and the body weight and tumor size of the mice were recorded. Mice were executed when the tumor volume approached 2000 mm^3. Tumor volumes of all mice were measured using vernier calipers. The mice were placed belly up and the longest diameter of the tumor was measured with the inner bayonet of a vernier caliper, and the shortest transverse diameter perpendicular to the diameter was measured with the inner bayonet of a vernier caliper and recorded. Tumor volume was estimated according to the following formula: (c × c × d)/2 (c, the smallest diameter; d, the largest diameter). All animal experiments were performed and approved by the Ethics Committee of China Pharmaceutical University.

[6] = 168 h, MDA-MB-231, concentration needed to reduce cell growth by 50% following 7 days cell treatment, read-out: IC50

T1 sequence (P09874 whole entry): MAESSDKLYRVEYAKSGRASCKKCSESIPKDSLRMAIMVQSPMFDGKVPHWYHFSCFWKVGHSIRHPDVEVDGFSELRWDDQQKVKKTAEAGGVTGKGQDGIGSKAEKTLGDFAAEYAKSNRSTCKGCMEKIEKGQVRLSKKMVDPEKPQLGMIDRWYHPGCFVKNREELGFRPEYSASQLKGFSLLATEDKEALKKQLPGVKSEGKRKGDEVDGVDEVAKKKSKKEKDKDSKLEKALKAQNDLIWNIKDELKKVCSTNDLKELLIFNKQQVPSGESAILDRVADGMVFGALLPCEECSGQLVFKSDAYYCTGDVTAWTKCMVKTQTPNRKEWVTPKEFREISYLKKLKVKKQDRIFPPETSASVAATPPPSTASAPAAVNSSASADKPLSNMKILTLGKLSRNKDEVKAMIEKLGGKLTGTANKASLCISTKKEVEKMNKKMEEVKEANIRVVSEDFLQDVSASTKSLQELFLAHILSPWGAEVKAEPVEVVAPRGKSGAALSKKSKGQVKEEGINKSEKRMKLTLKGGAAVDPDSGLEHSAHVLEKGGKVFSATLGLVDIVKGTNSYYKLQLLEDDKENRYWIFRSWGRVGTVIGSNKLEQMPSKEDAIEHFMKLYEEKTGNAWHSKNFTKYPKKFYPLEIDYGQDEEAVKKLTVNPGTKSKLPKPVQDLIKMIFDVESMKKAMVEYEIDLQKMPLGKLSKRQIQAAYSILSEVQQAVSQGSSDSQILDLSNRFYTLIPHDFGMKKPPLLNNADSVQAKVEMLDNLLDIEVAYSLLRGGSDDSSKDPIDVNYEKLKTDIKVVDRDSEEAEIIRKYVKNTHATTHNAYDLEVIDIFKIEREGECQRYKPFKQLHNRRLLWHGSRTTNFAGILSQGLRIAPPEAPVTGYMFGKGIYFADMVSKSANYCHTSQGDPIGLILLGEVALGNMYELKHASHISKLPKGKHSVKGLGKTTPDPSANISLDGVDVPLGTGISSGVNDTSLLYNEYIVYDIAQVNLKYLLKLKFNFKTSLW

Row | Compound | IC50 (PARP1 [1]) [µM] | IC50 (MDA-MB-231 cells; [6]) [µM] | IC50 (NRP1 [2]) [µM] | Kd (NRP1 [3]) [µM] | Kd (PARP1 [4]) [µM] | PARP1 (IC50, nM) (PARP1 [1]) | PARP1 (K d, nM) (PARP1 [4]) | IC50 (MDA-MB-231 cells; MDA-MB-231, 168 h) [µM] | NRP1 (IC50, nM) (NRP1 [2]) | NRP1 (K d, nM) (NRP1 [3]) | body weight (g) in mice, mean ([5]; day 0) [g] | tumor volume (mm^3), mean ([5]; day 0) [mm^3] | body weight (g) in mice, mean ([5]; day 3) [g] | tumor volume (mm^3), mean ([5]; day 3) [mm^3] | body weight (g) in mice, mean ([5]; day 6) [g] | tumor volume (mm^3), mean ([5]; day 6) [mm^3] | body weight (g) in mice, mean ([5]; day 9) [g] | tumor volume (mm^3), mean ([5]; day 9) [mm^3] | body weight (g) in mice, mean ([5]; day 12) [g] | tumor volume (mm^3), mean ([5]; day 12) [mm^3]
1 | NC(N)=NCCC[C@H](NC(=O)c1sccc1NS(=O)(=O)c1cccc2nsnc12)C(=O)O [EG00229] | – | 62.5 | 0.64 ± 0.0347 | 0.519 | – | No inhibition | no binding | – | – | – | 18.38 | 101 | 18.51 | 275 | 18.84 | 502 | 19.19 | 976 | 19.52 | 1352
2 | O=C(c1cc(Cc2n[nH]c(=O)c3ccccc23)ccc1F)N1CCN(C(=O)C2CC2)CC1 [Olaparib, olaparib] | – | – | – | – | – | – | – | 0.96 | No inhibition | no binding | 18.29 | 103 | 18.55 | 245 | 19.12 | 329 | 19.37 | 513 | 19.59 | 733

Now from value to molecule, other results behind:

Row | IC50 (PARP1 [1]) [µM] | IC50 (MDA-MB-231 cells; [6]) [µM] | IC50 (NRP1 [2]) [µM] | Kd (NRP1 [3]) [µM] | Kd (PARP1 [4]) [µM] | PARP1 (IC50, nM) (PARP1 [1]) | PARP1 (K d, nM) (PARP1 [4]) | IC50 (MDA-MB-231 cells; MDA-MB-231, 168 h) [µM] | NRP1 (IC50, nM) (NRP1 [2]) | NRP1 (K d, nM) (NRP1 [3]) | Compound | body weight (g) in mice, mean ([5]; day 0) [g] | tumor volume (mm^3), mean ([5]; day 0) [mm^3] | body weight (g) in mice, mean ([5]; day 3) [g] | tumor volume (mm^3), mean ([5]; day 3) [mm^3] | body weight (g) in mice, mean ([5]; day 6) [g] | tumor volume (mm^3), mean ([5]; day 6) [mm^3] | body weight (g) in mice, mean ([5]; day 9) [g] | tumor volume (mm^3), mean ([5]; day 9) [mm^3] | body weight (g) in mice, mean ([5]; day 12) [g] | tumor volume (mm^3), mean ([5]; day 12) [mm^3]
3 | 0.0633 ± 0.00402 | 0.83 | 0.0729 ± 0.00341 | 0.0713 | 0.0611 | – | – | – | – | – | NC(N)=NCCC[C@H](NC/C=C/CNC(=O)c1cc(Cc2n[nH]c(=O)c3ccccc23)ccc1F)C(=O)O [PPNR-3] | – | – | – | – | – | – | – | – | – | –
4 | 0.0703 ± 0.00313 | 0.89 | 0.0941 ± 0.00424 | 0.0915 | 0.0751 | – | – | – | – | – | NC(N)=NCCC[C@H](NCNCCNC(=O)c1cc(Cc2n[nH]c(=O)c3ccccc23)ccc1F)C(=O)O [PPNR-1] | – | – | – | – | – | – | – | – | – | –
5 | 0.0293 ± 0.00257 | 0.56 | 0.0312 ± 0.00395 | 0.031 | 0.0284 | – | – | – | – | – | NC(N)=NCCC[C@H](NCN1CCCN(C(=O)c2cc(Cc3n[nH]c(=O)c4ccccc34)ccc2F)C1)C(=O)O [PPNR-2] | – | – | – | – | – | – | – | – | – | –
6 | 0.0414 ± 0.00286 | 0.72 | 0.0571 ± 0.00327 | 0.0553 | 0.04 | – | – | – | – | – | CN(CCNC(=O)c1cc(Cc2n[nH]c(=O)c3ccccc23)ccc1F)CN[C@@H](CCCN=C(N)N)C(=O)O [PPNR-5] | – | – | – | – | – | – | – | – | – | –
